Laboratory results published in PubChem BioAssay (NCI).
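Method: 48-hour compound exposure of cells in 96-well plates, five concentrations, linear interpolation of endpoints. Here, GI50 denotes the concentration required for 50% inhibition of growth. TGI: total growth inhibition.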

Experiments:
Assay in all cases: NCI anticancer screen, dose series, 48 h
OVCAR-8 ovarian = tested on: OVCAR-8 ovarian
A498 renal = tested on: A498 renal
OVCAR-3 ovarian = tested on: OVCAR-3 ovarian
CAKI-1 renal = tested on: CAKI-1 renal
NCI-H23 lung = tested on: NCI-H23 lung
HCC-2998 colon = tested on: HCC-2998 colon
OVCAR-4 ovarian = tested on: OVCAR-4 ovarian
CCRF-CEM leukemia = tested on: CCRF-CEM leukemia
SK-MEL-5 melanoma = tested on: SK-MEL-5 melanoma
MDA-MB-435 = tested on: MDA-MB-435
U251 CNS = tested on: U251 CNS
NCI-H226 lung = tested on: NCI-H226 lung
HCT-116 colon = tested on: HCT-116 colon
NCI/ADR-RES ovarian = tested on: NCI/ADR-RES ovarian
BT-549 breast = tested on: BT-549 breast
KM12 colon = tested on: KM12 colon
MCF7 breast = tested on: MCF7 breast
MDA-MB-231 breast = tested on: MDA-MB-231 breast
TK-10 renal = tested on: TK-10 renal
COLO 205 colon = tested on: COLO 205 colon
HCT-15 colon = tested on: HCT-15 colon
HOP-62 NSCLC = tested on: HOP-62 NSCLC
MDA-N = tested on: MDA-N
IGROV1 ovarian = tested on: IGROV1 ovarian
UACC-257 melanoma = tested on: UACC-257 melanoma
SW-620 colon = tested on: SW-620 colon
SN12C renal = tested on: SN12C renal
M14 melanoma = tested on: M14 melanoma
ACHN renal = tested on: ACHN renal
MOLT-4 leukemia = tested on: MOLT-4 leukemia
DU-145 prostate = tested on: DU-145 prostate
SR leukemia = tested on: SR leukemia
OVCAR-5 ovarian = tested on: OVCAR-5 ovarian
SF-295 CNS = tested on: SF-295 CNS
SNB-75 CNS = tested on: SNB-75 CNS
HL-60(TB) leukemia = tested on: HL-60(TB) leukemia
PC-3 prostate = tested on: PC-3 prostate
K-562 leukemia = tested on: K-562 leukemia
SF-539 CNS = tested on: SF-539 CNS
MALME-3M melanoma = tested on: MALME-3M melanoma
SK-OV-3 ovarian = tested on: SK-OV-3 ovarian
UO-31 renal = tested on: UO-31 renal
SF-268 CNS = tested on: SF-268 CNS
HOP-92 NSCLC = tested on: HOP-92 NSCLC
SNB-19 CNS = tested on: SNB-19 CNS
SK-MEL-2 melanoma = tested on: SK-MEL-2 melanoma
RPMI-8226 leukemia = tested on: RPMI-8226 leukemia
HT29 colon = tested on: HT29 colon
LOX IMVI melanoma = tested on: LOX IMVI melanoma
HS 578T breast = tested on: HS 578T breast
NCI-H522 lung = tested on: NCI-H522 lung
RXF 393 renal = tested on: RXF 393 renal
NCI-H460 lung = tested on: NCI-H460 lung
786-0 renal = tested on: 786-0 renal
A549 NSCLC = tested on: A549 NSCLC
SK-MEL-28 melanoma = tested on: SK-MEL-28 melanoma
UACC-62 melanoma = tested on: UACC-62 melanoma
T-47D breast = tested on: T-47D breast
EKVX NSCLC = tested on: EKVX NSCLC

Cc1c(F)c(N)c2c(=O)cc(-c3ccc(NC(=O)CN(C)C)c(F)c3)oc2c1F
TGI (OVCAR-8 ovarian): > 100 µM
TGI (A498 renal): 5.77 µM
TGI (OVCAR-3 ovarian): > 60.9 µM
TGI (CAKI-1 renal): > 66.1 µM
TGI (NCI-H23 lung): > 100 µM
TGI (HCC-2998 colon): > 100 µM
TGI (OVCAR-4 ovarian): > 92.5 µM
TGI (CCRF-CEM leukemia): > 76.6 µM
TGI (SK-MEL-5 melanoma): > 100 µM
TGI (MDA-MB-435): > 100 µM
TGI (U251 CNS): > 81.1 µM
TGI (NCI-H226 lung): > 100 µM
TGI (HCT-116 colon): > 100 µM
TGI (NCI/ADR-RES ovarian): > 100 µM
TGI (BT-549 breast): > 100 µM
TGI (KM12 colon): > 100 µM
TGI (MCF7 breast): > 66.1 µM
TGI (MDA-MB-231 breast): > 83.7 µM
TGI (TK-10 renal): > 100 µM
TGI (COLO 205 colon): > 100 µM
TGI (HCT-15 colon): > 100 µM
GI50 (HOP-62 NSCLC): > 100 µM
TGI (HOP-62 NSCLC): > 100 µM
TGI (MDA-N): > 100 µM
TGI (IGROV1 ovarian): > 100 µM
TGI (UACC-257 melanoma): > 100 µM
TGI (SW-620 colon): > 74.6 µM
TGI (SN12C renal): > 100 µM
TGI (M14 melanoma): > 100 µM
TGI (ACHN renal): > 100 µM
TGI (MOLT-4 leukemia): > 71.8 µM
TGI (DU-145 prostate): > 100 µM
TGI (SR leukemia): 61 µM
TGI (OVCAR-5 ovarian): > 100 µM
TGI (SF-295 CNS): > 100 µM
GI50 (SNB-75 CNS): 32.9 µM
TGI (SNB-75 CNS): > 100 µM
TGI (HL-60(TB) leukemia): 46.4 µM
TGI (PC-3 prostate): > 100 µM
TGI (K-562 leukemia): 98.9 µM
TGI (SF-539 CNS): > 100 µM
TGI (MALME-3M melanoma): > 100 µM
TGI (SK-OV-3 ovarian): > 100 µM
TGI (UO-31 renal): > 100 µM
TGI (SF-268 CNS): > 100 µM
GI50 (HOP-92 NSCLC): > 36.4 µM
TGI (HOP-92 NSCLC): 99.4 µM
TGI (SNB-19 CNS): > 100 µM
TGI (SK-MEL-2 melanoma): > 100 µM
TGI (RPMI-8226 leukemia): > 83 µM
TGI (HT29 colon): > 100 µM
TGI (LOX IMVI melanoma): > 100 µM
TGI (HS 578T breast): > 100 µM
TGI (NCI-H522 lung): > 100 µM
TGI (RXF 393 renal): > 100 µM
TGI (NCI-H460 lung): > 100 µM
TGI (786-0 renal): > 100 µM
TGI (A549 NSCLC): > 100 µM
TGI (SK-MEL-28 melanoma): > 100 µM
TGI (UACC-62 melanoma): > 94.2 µM
TGI (T-47D breast): > 100 µM

COC(=O)C(/C(=N/NC(N)=O)C(=O)Nc1ccc(C)cc1)c1nc2ccc([N+](=O)[O-])cc2[nH]c1=O (stereo unspecified)
TGI (OVCAR-8 ovarian): > 100 µM
TGI (A498 renal): > 100 µM
TGI (OVCAR-3 ovarian): > 100 µM
TGI (CAKI-1 renal): > 100 µM
TGI (HCC-2998 colon): > 100 µM
TGI (OVCAR-4 ovarian): > 100 µM
TGI (SK-MEL-5 melanoma): > 100 µM
TGI (MDA-MB-435): > 100 µM
TGI (U251 CNS): > 100 µM
TGI (NCI-H226 lung): > 100 µM
TGI (HCT-116 colon): > 100 µM
TGI (NCI/ADR-RES ovarian): > 100 µM
TGI (EKVX NSCLC): > 100 µM
TGI (BT-549 breast): > 100 µM
TGI (KM12 colon): > 100 µM
TGI (MCF7 breast): > 100 µM
TGI (MDA-MB-231 breast): > 100 µM
TGI (TK-10 renal): > 100 µM
TGI (HCT-15 colon): > 100 µM
TGI (HOP-62 NSCLC): > 100 µM
TGI (MDA-N): > 100 µM
TGI (IGROV1 ovarian): > 100 µM
TGI (SW-620 colon): > 100 µM
TGI (SN12C renal): > 100 µM
TGI (M14 melanoma): > 100 µM
TGI (MOLT-4 leukemia): > 100 µM
TGI (SR leukemia): > 100 µM
TGI (OVCAR-5 ovarian): > 100 µM
TGI (SF-295 CNS): > 100 µM
TGI (SNB-75 CNS): > 100 µM
TGI (PC-3 prostate): > 100 µM
TGI (K-562 leukemia): > 100 µM
TGI (SF-539 CNS): > 100 µM
TGI (MALME-3M melanoma): > 100 µM
TGI (SK-OV-3 ovarian): > 100 µM
TGI (SF-268 CNS): > 100 µM
TGI (HOP-92 NSCLC): > 100 µM
TGI (SK-MEL-2 melanoma): > 100 µM
TGI (RPMI-8226 leukemia): > 100 µM
TGI (HT29 colon): > 100 µM
TGI (LOX IMVI melanoma): > 100 µM
TGI (HS 578T breast): > 100 µM
TGI (NCI-H522 lung): > 100 µM
TGI (RXF 393 renal): > 100 µM
TGI (NCI-H460 lung): > 100 µM
TGI (786-0 renal): > 100 µM
TGI (A549 NSCLC): > 100 µM
TGI (SK-MEL-28 melanoma): > 100 µM
TGI (UACC-62 melanoma): > 100 µM
TGI (T-47D breast): > 100 µM
